# Key:
# Glucocorticoid receptor [1] = target: T1, Glucocorticoid receptor (Homo sapiens, UniProt P04150); assay: Binding affinity for glucocorticoid receptor
# T1 sequence (P04150 whole entry): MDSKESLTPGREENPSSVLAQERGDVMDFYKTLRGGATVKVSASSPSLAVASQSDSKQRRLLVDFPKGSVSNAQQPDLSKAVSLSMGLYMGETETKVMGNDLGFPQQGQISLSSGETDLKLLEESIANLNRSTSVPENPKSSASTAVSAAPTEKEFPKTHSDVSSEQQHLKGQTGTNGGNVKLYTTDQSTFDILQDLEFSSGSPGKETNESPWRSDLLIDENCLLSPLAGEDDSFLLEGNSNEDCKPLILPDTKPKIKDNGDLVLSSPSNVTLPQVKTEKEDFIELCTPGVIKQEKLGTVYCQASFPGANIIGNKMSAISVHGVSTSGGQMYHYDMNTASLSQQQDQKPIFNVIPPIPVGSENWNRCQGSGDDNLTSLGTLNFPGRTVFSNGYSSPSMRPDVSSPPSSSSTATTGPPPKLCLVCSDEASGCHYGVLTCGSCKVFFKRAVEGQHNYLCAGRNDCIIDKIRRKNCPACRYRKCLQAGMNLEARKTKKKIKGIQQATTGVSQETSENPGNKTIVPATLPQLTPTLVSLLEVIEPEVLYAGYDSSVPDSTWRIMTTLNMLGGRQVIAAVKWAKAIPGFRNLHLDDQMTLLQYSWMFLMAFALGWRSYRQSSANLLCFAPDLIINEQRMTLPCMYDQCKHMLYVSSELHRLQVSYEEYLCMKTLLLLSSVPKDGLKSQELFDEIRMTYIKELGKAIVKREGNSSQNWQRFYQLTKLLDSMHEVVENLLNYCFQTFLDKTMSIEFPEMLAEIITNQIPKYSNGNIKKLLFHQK
# Estrogen receptor = Estrogen receptor (Homo sapiens, UniProt Q92731+P03372); assay: Binding affinity for estrogen receptor; type: protein assay
# [2] = target: T2, Mineralocorticoid receptor (Homo sapiens, UniProt P08235); assay: Binding affinity for mineralocorticoid receptor
# T2 sequence (P08235 whole entry): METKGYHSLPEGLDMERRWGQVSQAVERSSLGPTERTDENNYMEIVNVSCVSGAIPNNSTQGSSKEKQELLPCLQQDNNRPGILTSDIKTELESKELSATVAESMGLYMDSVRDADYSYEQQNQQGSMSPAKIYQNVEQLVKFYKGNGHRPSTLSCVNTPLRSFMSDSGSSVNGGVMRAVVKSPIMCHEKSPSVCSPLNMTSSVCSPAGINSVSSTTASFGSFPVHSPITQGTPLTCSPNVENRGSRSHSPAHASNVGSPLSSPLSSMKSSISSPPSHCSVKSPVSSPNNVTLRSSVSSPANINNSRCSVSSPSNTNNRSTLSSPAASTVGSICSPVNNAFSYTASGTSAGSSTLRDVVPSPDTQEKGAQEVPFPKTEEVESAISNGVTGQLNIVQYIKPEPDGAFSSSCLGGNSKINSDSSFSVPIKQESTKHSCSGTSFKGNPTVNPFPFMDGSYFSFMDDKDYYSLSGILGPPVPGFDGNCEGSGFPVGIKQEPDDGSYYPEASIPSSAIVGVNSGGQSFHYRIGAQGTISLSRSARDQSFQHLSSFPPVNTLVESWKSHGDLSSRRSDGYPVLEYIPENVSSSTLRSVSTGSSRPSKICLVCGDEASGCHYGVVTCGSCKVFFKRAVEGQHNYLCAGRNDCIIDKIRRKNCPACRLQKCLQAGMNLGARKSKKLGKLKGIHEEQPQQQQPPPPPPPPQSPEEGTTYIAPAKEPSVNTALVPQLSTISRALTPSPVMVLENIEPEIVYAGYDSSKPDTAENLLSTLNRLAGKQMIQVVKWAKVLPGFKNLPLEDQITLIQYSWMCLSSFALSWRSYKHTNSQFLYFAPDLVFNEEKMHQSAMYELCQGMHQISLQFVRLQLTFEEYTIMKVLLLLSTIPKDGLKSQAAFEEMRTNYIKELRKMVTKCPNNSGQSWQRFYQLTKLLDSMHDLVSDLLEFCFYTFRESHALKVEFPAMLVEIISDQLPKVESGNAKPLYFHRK
# [3] = target: T3, Glucocorticoid receptor (Rattus norvegicus) (UniProt P06536); assay: Anti-asthmatic effect as eosinophil influx in rat lung model; type: functional
# T3 sequence (whole entry): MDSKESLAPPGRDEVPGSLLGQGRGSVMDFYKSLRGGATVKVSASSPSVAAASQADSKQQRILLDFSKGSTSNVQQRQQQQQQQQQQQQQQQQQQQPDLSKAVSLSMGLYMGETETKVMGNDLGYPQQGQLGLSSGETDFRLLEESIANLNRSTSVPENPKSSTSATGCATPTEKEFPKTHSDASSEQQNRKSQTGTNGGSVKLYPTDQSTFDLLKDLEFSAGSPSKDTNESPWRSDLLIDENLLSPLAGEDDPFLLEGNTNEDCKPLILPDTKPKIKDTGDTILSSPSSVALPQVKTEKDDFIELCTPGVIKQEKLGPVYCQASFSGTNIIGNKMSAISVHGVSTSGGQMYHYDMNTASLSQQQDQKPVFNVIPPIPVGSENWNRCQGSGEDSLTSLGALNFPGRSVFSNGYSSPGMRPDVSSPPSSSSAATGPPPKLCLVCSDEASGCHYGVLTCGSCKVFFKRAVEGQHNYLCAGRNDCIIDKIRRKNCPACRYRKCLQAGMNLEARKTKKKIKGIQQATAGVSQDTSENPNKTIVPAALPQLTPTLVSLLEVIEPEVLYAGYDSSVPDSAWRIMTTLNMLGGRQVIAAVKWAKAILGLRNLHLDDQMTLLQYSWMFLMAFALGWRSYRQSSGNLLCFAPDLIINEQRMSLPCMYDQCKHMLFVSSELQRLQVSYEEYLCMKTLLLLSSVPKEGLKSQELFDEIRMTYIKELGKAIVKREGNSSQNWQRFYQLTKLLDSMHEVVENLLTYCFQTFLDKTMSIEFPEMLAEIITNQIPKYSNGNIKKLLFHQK
# Glucocorticoid receptor [4] = target: T1, Glucocorticoid receptor; assay: Transcriptional repression activity in HEP G2 cells expressing glucocorticoid receptor compared to Dexamethasone; type: functional, cell-based, HepG2
# Glucocorticoid receptor [5] = target: T1, Glucocorticoid receptor; assay: Glucocorticoid-induced aromatase activity in human skin fibroblasts; type: functional
compound,measurement,setting,value
COc1cccc2c1-c1ccc3c(c1C(c1cccc(OCSC)c1)O2)C(C)=CC(C)(C)N3 (stereo unspecified),Ki,Glucocorticoid receptor [1],0.004 µM
same,Ki,Estrogen receptor,> 1 µM
same,Ki,[2],3.84 µM
same,ED50,[3],2.8 mg/kg
same,IC50,Glucocorticoid receptor [4],0.004 µM
same,IC50,Glucocorticoid receptor [5],0.14 µM
